Biological target: PD-1/PD-L1 interaction (PD-1-Ig / PD-L1-His) (Homo sapiens (Human), UniProt Q9NZQ7)
Experiment: PD-1/PD-L1 Homogenous Time-Resolved Fluorescence (HTRF) binding assay
Conditions: PD-L1-His 10 nM final, PD-1-Ig 20 nM final
Excerpt: The ability of the compounds of the invention to bind to PD-L1 was investigated using a PD-1/PD-L1 Homogenous Time-Resolved Fluorescence (HTRF) binding assay.
The interaction of PD-1 and PD-L1 can be assessed using soluble, purified preparations of the extracellular domains of the two proteins. The PD-1 and PD-L1 protein extracellular domains were expressed as fusion proteins with detection tags, for PD-1, the tag was the Fc portion of Immunoglobulin (PD-1-Ig) and for PD-L1 it was the 6 histidine motif (PD-L1-His). All binding studies were performed in an HTRF assay buffer consisting of dPBS supplemented with 0.1% […] bovine serum albumin and 0.05% (v/v) Tween-20. For the h/PD-L1-His binding assay, inhibitors were pre-incubated with PD-L1-His (10 nM final) for 15 m in 4 μl of assay buffer, followed by addition of PD-1-Ig (20 nM final) in 1 μl of assay buffer and further incubation for 15 m. HTRF detection was achieved using europium crypate-labeled anti-Ig (1 nM final) and allophycocyanin (APC) labeled anti-His (20 nM final). Antibodies were diluted in HTRF detection buffer and 5 μl was dispensed on top of the binding reaction. The reaction mixture was allowed to equilibrate for 30 minutes and the resulting signal (665 nm/620 nm ratio) was obtained using an EnVision fluorometer. Additional binding assays were established between the human proteins PD-1-Ig/PD-L2-His (20 & 5 nM, respectively) and CD80-His/PD-L1-Ig (100 & 10 nM, respectively).
Recombinant Proteins: Human PD-1 (25-167) with a C-terminal human Fc domain of immunoglobulin G (Ig) epitope tag [hPD-1 (25-167)-3S-IG] and human PD-L1 (18-239) with a C-terminal His epitope tag [hPD-L1(18-239)-TVMV-His] were expressed in HEK293T cells and purified sequentially by ProteinA affinity chromatography and size exclusion chromatography. Human PD-L2-His and CD80-His was obtained through commercial sources.
Homogenous Time-Resolved Fluorescence (HTRF) Assays of Binding of Soluble PD-1 to Soluble PD-L1. Soluble PD-1 and soluble PD-L1 refers to proteins with carboxyl-end truncations that remove the transmembrane-spanning regions and are fused to heterologous sequences, specifically the Fc portion of the human immunoglobuling G sequence (Ig) or the hexahistidine epitope tag (His). All binding studies were performed in an HTRF assay buffer consisting of dPBS supplemented with 0.1% (w/v) bovine serum albumin and 0.05% (v/v) Tween-20. For the PD-1-Ig/PD-L1-His binding assay, inhibitors were pre-incubated with PD-L1-His (10 nM final) for 15 m in 4 μl of assay buffer, followed by addition of PD-1-Ig (20 nM final) in 1 μl of assay buffer and further incubation for 15 m. PD-L1 fusion proteins from either human, cynomologous macaques, mouse, or other species were used. HTRF detection was achieved using europium crypate-labeled anti-Ig monoclonal antibody (1 nM final) and allophycocyanin (APC) labeled anti-His monoclonal antibody (20 nM final). Antibodies were diluted in HTRF detection buffer and 5 μl was dispensed on top of binding reaction. The reaction was allowed to equilibrate for 30 minutes and signal (665 nm/620 nm ratio) was obtained using an EnVision fluorometer. Additional binding assays were established between PD-1-Ig/PD-L2-His (20 and 5 nM, respectively), CD80-His/PD-L1-Ig (100 and 10 nM, respectively) and CD80-His/CTLA4-Ig (10 and 5 nM, respectively).
Recombinant Proteins. Carboxyl-truncated human PD-1 (amino acids 25-167) with a C-terminal human Ig epitope tag [hPD-1 (25-167)-3S-IG] and human PD-L1 (amino acids 18-239) with a C-terminal His epitope tag [hPD-L1(19-239)-tobacco vein mottling virus protease cleavage site (TVMV)-His] were expressed in HEK293T cells and purified sequentially by recombinant Protein A affinity chromatography and size exclusion chromatography. Human PD-L2-His (Sino Biologicals), CD80-His (Sino Biologicals), CTLA4-Ig (RnD Systems) were all obtained through commercial sources.

Sequence of PD-1/PD-L1 interaction (PD-1-Ig / PD-L1-His) (Q9NZQ7 18-239): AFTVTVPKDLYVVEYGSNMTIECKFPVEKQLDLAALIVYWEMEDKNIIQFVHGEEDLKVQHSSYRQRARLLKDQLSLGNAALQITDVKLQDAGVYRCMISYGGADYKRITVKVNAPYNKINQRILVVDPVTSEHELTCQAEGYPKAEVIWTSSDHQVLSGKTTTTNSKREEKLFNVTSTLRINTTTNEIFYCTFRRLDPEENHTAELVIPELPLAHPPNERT

Row | SMILES | IC50
1 | Cc1c(COc2cc(OCc3cncc(C#N)c3)c(CNC3CC(C)(C)OC3=O)cc2Cl)cccc1-c1cccc(COc2cc(OCc3cncc(C#N)c3)c(CNC3CC(C)(C)OC3=O)cc2Cl)c1C (centres unmarked) [Compound 1022] | 145 nM
2 | Cc1c(COc2cc(OCc3cncc(C#N)c3)c(CNC3C(=O)OCC3(C)C)cc2Cl)cccc1-c1cccc(COc2cc(OCc3cncc(C#N)c3)c(CNC3C(=O)OCC3(C)C)cc2Cl)c1C (centres unmarked) [Compound 1023] | > 10000 nM
3 | Cc1c(COc2cc(OCc3cncc(C#N)c3)c(CNC3CC(C)OC3=O)cc2Cl)cccc1-c1cccc(COc2cc(OCc3cncc(C#N)c3)c(CNC3CC(C)OC3=O)cc2Cl)c1C (centres unmarked) [Compound 1024] | 21.4 nM
4 | Cc1c(COc2cc(OCc3cncc(C#N)c3)c(CNC3(C)CC(C)(C)OC3=O)cc2Cl)cccc1-c1cccc(COc2cc(OCc3cncc(C#N)c3)c(CNC3(C)CC(C)(C)OC3=O)cc2Cl)c1C (centres unmarked) [Compound 1025] | > 10000 nM
5 | N#Cc1cncc(COc2cc(OCc3cccc(-c4cccc(COc5cc(OCc6cncc(C#N)c6)c(CN[C@H]6CCOC6=O)cc5Cl)c4Cl)c3Cl)c(Cl)cc2CN[C@H]2CCOC2=O)c1 [Compound 1026] | 10.4 nM
6 | Cc1c(COc2cc(OCc3cncc(C#N)c3)c(CNC3CCNC3=O)cc2Cl)cccc1-c1cccc(OCC2CCCN(C)C2)c1Cl (centres unmarked) [Compound 1027] | 2.5 nM
7 | Cc1c(COc2cc(O)c(CN[C@H]3COC(=O)C3)cc2Cl)cccc1-c1cccc(OCC2CCCN(C)C2)c1Cl (some centres unmarked) [Compound 1028] | 44.5 nM
8 | Cc1c(COc2cc(O)c(CNC3(C)CCOC3=O)cc2Cl)cccc1-c1cccc(OCC2CCCN(C)C2)c1Cl (centres unmarked) [Compound 1029] | 132 nM
9 | Cc1c(COc2cc(O)c(CNC3CC(C)OC3=O)cc2Cl)cccc1-c1cccc(OCC2CCCN(C)C2)c1Cl (centres unmarked) [Compound 1030] | 80.1 nM
10 | Cc1c(COc2cc(O)c(CN[C@H]3CCOC3=O)cc2Cl)cccc1-c1cccc(OCC2CCCN(C)C2)c1Cl (some centres unmarked) [Compound 1031] | 39.3 nM
11 | COc1cc(OCc2cccc(-c3cccc(OCC4CCCN(C)C4)c3Cl)c2C)c(Cl)cc1CNC1CCOC1=O (centres unmarked) [Compound 1032] | 7.8 nM
12 | COc1cc(OCc2cccc(-c3cccc(OCC4CCCN(C)C4)c3Cl)c2C)c(Cl)cc1CNC1CC(C)OC1=O (centres unmarked) [Compound 1033] | 11.5 nM
13 | COc1cc(OCc2cccc(-c3cccc(OCC4CCCN(C)C4)c3Cl)c2C)c(Cl)cc1CNC1CC(C)(C)OC1=O (centres unmarked) [Compound 1034] | 7.4 nM
14 | COc1cc(OCc2cccc(-c3cccc(OCC4CCCN(C)C4)c3Cl)c2C)c(Cl)cc1CNC1CCCNC1=O (centres unmarked) [Compound 1035] | 2.1 nM
15 | COc1cc(OCc2cccc(-c3cccc(OCC4CCCN(C)C4)c3Cl)c2C)c(Cl)cc1CNC1(C)CCOC1=O (centres unmarked) [Compound 1036] | 7.3 nM
16 | COc1cc(OCc2cccc(-c3cccc(OCC4CCCN(C)C4)c3Cl)c2C)c(Cl)cc1CNC1C(=O)OCC1(C)C (centres unmarked) [Compound 1037] | 136 nM

Row | SMILES | IC50
17 | COc1cc(OCc2cccc(-c3cccc(OCC4CCCN(C)C4)c3Cl)c2C)c(Cl)cc1CNC1CCNC1=O (centres unmarked) [Compound 1038] | 4.8 nM
18 | COc1cc(OCc2cccc(-c3cccc(OCC4CCCN(C)C4)c3Cl)c2C)c(Cl)cc1CNC1(C)CC(C)(C)OC1=O (centres unmarked) [Compound 1039] | 19.6 nM
19 | COc1cc(OCc2cccc(-c3cccc(OCC4CCCN(C)C4)c3Cl)c2C)c(Cl)cc1CN[C@H]1CCOC1=O (some centres unmarked) [Compound 1040] | 6.7 nM
20 | COc1cc(OCc2cccc(-c3cccc(OCC4CCCN(C)C4)c3Cl)c2C)c(Cl)cc1CN[C@@H]1CCOC1=O (some centres unmarked) [Compound 1041] | 9.1 nM
21 | COc1cc(OCc2cccc(-c3cccc(OCC4CCCN(C)C4)c3Cl)c2C)c(Cl)cc1CN[C@H]1COC(=O)C1 (some centres unmarked) [Compound 1042] | 5.6 nM
22 | COc1cc(OCc2cccc(-c3cccc(OCC4CCCN(C)C4)c3Cl)c2C)c(Cl)cc1CN[C@H]1CCNC1=O (some centres unmarked) [Compound 1044] | 5.6 nM
23 | COc1cc(OCc2cccc(-c3cccc(OCC4CCCN(C)C4)c3Cl)c2C)c(Cl)cc1CN[C@H]1CCCNC1=O (some centres unmarked) [Compound 1045] | 3.6 nM
24 | COc1cc(OCc2cccc(-c3cccc(OCC4CCCN(C)C4)c3Cl)c2C)c(Cl)cc1CNC1CCC(=O)NC1=O (centres unmarked) [Compound 1046] | 3.1 nM
25 | Cc1c(COc2cc3c(cc2Cl)CN(C2CCOC2=O)C(=O)CO3)cccc1-c1cccc(OCC2CCCN(C)C2)c1Cl (centres unmarked) [Compound 1047] | 388 nM
26 | C=C1COc2cc(OCc3cccc(-c4cccc(OCC5CCCN(C)C5)c4Cl)c3C)c(Cl)cc2CN(C2CCOC2=O)C1 (centres unmarked) [Compound 1048] | 3830 nM
27 | Cc1c(COc2cc3c(cc2Cl)CN(C2CCOC2=O)CC(O)CO3)cccc1-c1cccc(OCC2CCCN(C)C2)c1Cl (centres unmarked) [Compound 1049] | 11.5 nM
28 | CC(=O)N(Cc1cc(Cl)c(COc2cccc(-c3cccc(COc4cc(OCc5cncc(C#N)c5)c(CN(C(C)=O)[C@@H]5COC(=O)C5)cc4Cl)c3C)c2C)cc1OCc1cncc(C#N)c1)[C@@H]1COC(=O)C1 [Compound 1050] | 47.3 nM
29 | Cc1c(COc2cc(OCc3cncc(C#N)c3)c(CN(C)C3(C)CCOC3=O)cc2Cl)cccc1-c1cccc(COc2cc(OCc3cncc(C#N)c3)c(CN(C)C3(C)CCOC3=O)cc2Cl)c1C (centres unmarked) [Compound 1051] | 383 nM
30 | Cc1c(COc2cc(OCc3cncc(C#N)c3)c(CN(CC3CC3)C3(C)CCOC3=O)cc2Cl)cccc1-c1cccc(COc2cc(OCc3cncc(C#N)c3)c(CN(CC3CC3)C3(C)CCOC3=O)cc2Cl)c1C (centres unmarked) [Compound 1052] | 2500 nM
31 | Cc1c(COc2cc(OCc3cncc(C#N)c3)c(CN(C)C3CC(C)OC3=O)cc2Cl)cccc1-c1cccc(COc2cc(OCc3cncc(C#N)c3)c(CN(C)C3CC(C)OC3=O)cc2Cl)c1C (centres unmarked) [Compound 1053] | 1470 nM
32 | CCN(Cc1cc(Cl)c(OCc2cccc(-c3cccc(COc4cc(OCc5cncc(C#N)c5)c(CN(CC)C5CC(C)OC5=O)cc4Cl)c3C)c2C)cc1OCc1cncc(C#N)c1)C1CC(C)OC1=O (centres unmarked) [Compound 1054] | 2520 nM

Source: patent publication US20240327389A1, “LACTONE AND LACTAM CONTAINING COMPOUNDS USEFUL AS IMMUNOMODULATORS” (BRISTOL-MYERS SQUIBB COMPANY, priority 2021, published 2024)
